Reference: patent publication US6737383B1, “Herbicidal oxadiazolidines” (priority 1999, dated 2004)

Legend:
bedstraw = test: Test B pre/postemergence bedstraw; type: in vivo, Galium aparine; conditions: Preemergence
In short: (§1)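 Response is a visual 0-to-10 score relative to untreated plants, where 0 means no effect and 10 means complete control, taken twelve to sixteen days after application. Treatments went onto soil at planting and onto foliage of 1- to 4-leaf plants, using a surfactant-containing non-phytotoxic solvent.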

blackgrass = test: Test B pre/postemergence blackgrass; type: in vivo, Alopecurus myosuroides
In short: as §1

surinam grass = test: Test B pre/postemergence surinam grass; type: in vivo, Brachiaria decumbens
In short: as §1

cocklebur = test: Test B pre/postemergence cocklebur; type: in vivo, Xanthium strumarium
In short: as §1

corn = test: Test B pre/postemergence corn; type: in vivo, Zea mays
In short: as §1

crabgrass = test: Test B pre/postemergence crabgrass; type: in vivo, Digitaria sanguinalis
In short: as §1

giant foxtail = test: Test B pre/postemergence giant foxtail; type: in vivo, Setaria faberii
In short: as §1

morningglory = test: Test B pre/postemergence morningglory; type: in vivo, Ipomoea hederacea
In short: as §1

pigweed = test: Test B pre/postemergence pigweed; type: in vivo, Amaranthus retroflexus
In short: as §1

rape = test: Test B pre/postemergence rape; type: in vivo, Brassica napus
In short: as §1

soybean = test: Test B pre/postemergence soybean; type: in vivo, Glycine max; conditions: for Plant response rating, Soybean: Rate 500 g/ha
In short: as §1

sugar beet = test: Test B pre/postemergence sugar beet; type: in vivo, Beta vulgaris
In short: as §1

velvetleaf = test: Test B pre/postemergence velvetleaf; type: in vivo, Abutilon theophrasti
In short: as §1

wheat = test: Test B pre/postemergence wheat; type: in vivo, Triticum aestivum
In short: as §1

wild oat = test: Test B pre/postemergence wild oat; type: in vivo, Avena fatua
In short: as §1

purple nutsedge = test: Test B pre/postemergence purple nutsedge; type: in vivo, Cyperus rotundus
In short: as §1

rice = test: Test B flood test rice; type: in vivo, Oryza sativa
In short: (§2)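 Plants were grown to the 2-leaf stage before treatment with test chemical, then held in a greenhouse for twelve to sixteen days. Injury was visually rated against untreated controls on a 0–10 scale, where 0 is no effect and 10 is complete control.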

smallflower flatsedge = test: Test B flood test smallflower flatsedge; type: in vivo, Cyperus difformis
In short: as §2

duck salad = test: Test B flood test duck salad; type: in vivo, Heteranthera limosa
In short: as §2

bamyardgrass = test: Test B flood test barnyardgrass; type: in vivo, Echinochloa crus-galli
In short: as §2

[1] = Postemergence, Rate 62 g/ha, scale of 0 to 10, 0 is no effect, 10 is complete control
[2] = Postemergence, Rate 125 g/ha, scale of 0 to 10 where 0 is no effect and 10 is complete control
[3] = Postemergence, Rate 250 g/ha, scale of 0 to 10, 0 is no effect, 10 is complete control
[4] = Postemergence, Rate 500 g/ha, scale of 0 to 10 where 0 is no effect and 10 is complete control
[5] = Preemergence, Rate 62 g/ha, scale 0 to 10 (0 no effect, 10 complete control)
[6] = Preemergence, Rate 125 g/ha, scale of 0 to 10 where 0 is no effect and 10 is complete control
[7] = Preemergence, Rate 500 g/ha, scale of 0 to 10 where 0 is no effect and 10 is complete control
[8] = Rate 62 g/ha, flood test species, Pre-emergence, visual evaluation after twelve to sixteen days
[9] = Rate 125 g/ha, under heading Pre-emergence, flood test species, visual evaluation after twelve to sixteen days
[10] = Rate 250 g/ha, Pre-emergence (flood test species), scale 0 to 10, 0 is no effect, 10 is complete control
[11] = Rate 500 g/ha, Pre-emergence section of Table B, 0 to 10 scale (0 no effect, 10 complete control)

Structure (SMILES): CC(C)N(C(=O)n1oc(=O)n(C(CF)CF)c1=O)c1ccc(F)cc1F [Compound 595]
- Bedstraw plant response rating (bedstraw; Rate 62 g/ha, scale 0 to 10 (0 no effect, 10 complete control)): 0
- Bedstraw plant response rating (bedstraw; Rate 125 g/ha, scale of 0 to 10 where 0 is no effect and 10 is complete control): 8
- Bedstraw plant response rating (bedstraw; Rate 500 g/ha, scale of 0 to 10 where 0 is no effect and 10 is complete control): 10
- Blackgrass plant response rating (blackgrass; [1]): 3
- Plant response rating, Blackgrass (blackgrass; [2]): 7
- Blackgrass plant response rating (blackgrass; [3]): 9
- Plant response rating, Blackgrass (blackgrass; [4]): 9
- Blackgrass plant response rating (blackgrass; [5]): 6
- Blackgrass plant response rating (blackgrass; [6]): 9
- Blackgrass plant response rating (0 to 10 scale) (blackgrass; Preemergence, Rate 250 g/ha): 10
- Blackgrass plant response rating (blackgrass; [7]): 10
- B. signalgrass plant response rating (surinam grass; [1]): 0
- Plant response rating, B. signalgrass (surinam grass; [2]): 0
- B. signalgrass plant response rating (surinam grass; [3]): 6
- Plant response rating, B. signalgrass (surinam grass; [4]): 6
- B. signalgrass plant response rating (surinam grass; [5]): 2
- B. signalgrass plant response rating (surinam grass; [6]): 6
- B. signalgrass plant response rating (0 to 10 scale, 0 is no effect, 10 is complete control) (surinam grass; Preemergence, Rate 250 g/ha): 7
- B. signalgrass plant response rating (surinam grass; [7]): 9
- Cocklebur plant response rating (cocklebur; [1]): 0
- Plant response rating, Cocklebur (cocklebur; [2]): 0
- Cocklebur plant response rating (cocklebur; [3]): 0
- Plant response rating, Cocklebur (cocklebur; [4]): 2
- Cocklebur plant response rating (cocklebur; [6]): 0
- Cocklebur plant response rating (0 to 10 scale) (cocklebur; Preemergence, Rate 250 g/ha): 0
- Plant response rating, Cocklebur (cocklebur; [7]): 0
- Corn plant response rating (corn; [1]): 0
- Plant response rating, Corn (corn; [2]): 0
- Corn plant response rating (corn; [3]): 2
- Plant response rating, Corn (corn; [4]): 3
- Corn plant response rating (corn; [5]): 0
- Corn plant response rating (corn; [6]): 0
- Corn plant response rating (0 to 10 scale) (corn; Preemergence, Rate 250 g/ha): 4
- Plant response rating, Corn (corn; [7]): 6
- Crabgrass plant response rating (crabgrass; [1]): 5
- Plant response rating, Crabgrass (crabgrass; [2]): 8
- Crabgrass plant response rating (crabgrass; [3]): 9
- Plant response rating, Crabgrass (crabgrass; [4]): 9
- Crabgrass plant response rating (crabgrass; [5]): 7
- Crabgrass plant response rating (crabgrass; [6]): 9
- Plant response rating, Crabgrass (crabgrass; [7]): 10
- Giant foxtail plant response rating (giant foxtail; [1]): 8
- Plant response rating, Giant foxtail (giant foxtail; [2]): 9
- Giant foxtail plant response rating (giant foxtail; [3]): 9
- Plant response rating, Giant foxtail (giant foxtail; [4]): 9
- Giant foxtail plant response rating (giant foxtail; [5]): 10
- Giant foxtail plant response rating (giant foxtail; [6]): 10
- Plant response rating, Giant foxtail (giant foxtail; [7]): 9
- Morningglory plant response rating (morningglory; [1]): 1
- Plant response rating, Morningglory (morningglory; [2]): 2
- Morningglory plant response rating (morningglory; [3]): 3
- Plant response rating, Morningglory (morningglory; [4]): 6
- Morningglory plant response rating (morningglory; [5]): 0
- Morningglory plant response rating (morningglory; [6]): 0
- Plant response rating, Morningglory (morningglory; [7]): 6
- Plant response rating, Redroot pigweed (pigweed; [2]): 0
- Redroot pigweed plant response rating (pigweed; [3]): 3
- Plant response rating, Redroot pigweed (pigweed; [4]): 7
- Redroot pigweed plant response rating (pigweed; [5]): 0
- Redroot pigweed plant response rating (pigweed; [6]): 10
- Plant response rating, Redroot pigweed (pigweed; [7]): 10
- Rape plant response rating (rape; [1]): 0
- Plant response rating, Rape (rape; [2]): 0
- Rape plant response rating (rape; [3]): 2
- Plant response rating, Rape (rape; [4]): 2
- Rape plant response rating (rape; [5]): 4
- Rape plant response rating (rape; [6]): 4
- Plant response rating, Rape (rape; [7]): 10
- Soybean plant response rating (soybean; [3]): 4
- Plant response rating, Soybean (soybean; Postemergence, scale of 0 to 10 where 0 is no effect and 10 is complete control): 4
- Soybean plant response rating (soybean; [5]): 0
- Soybean plant response rating (soybean; [6]): 1
- Plant response rating, Soybean (soybean; Preemergence, scale of 0 to 10 where 0 is no effect and 10 is complete control): 4
- Plant response rating, Sugarbeets (sugar beet; [2]): 3
- Sugarbeets plant response rating (sugar beet; [3]): 3
- Plant response rating, Sugarbeets (sugar beet; [4]): 3
- Sugarbeets plant response rating (sugar beet; [5]): 6
- Sugarbeets plant response rating (sugar beet; [6]): 8
- Plant response rating, Sugarbeets (sugar beet; [7]): 9
- Plant response rating, Velvetleaf (velvetleaf; [2]): 4
- Velvetleaf plant response rating (velvetleaf; [3]): 7
- Plant response rating, Velvetleaf (velvetleaf; [4]): 7
- Velvetleaf plant response rating (velvetleaf; [5]): 7
- Velvetleaf plant response rating (velvetleaf; [6]): 7
- Plant response rating, Velvetleaf (velvetleaf; [7]): 9
- Plant response rating, Wheat (wheat; [2]): 0
- Wheat plant response rating (wheat; [3]): 2
- Plant response rating, Wheat (wheat; [4]): 3
- Wheat plant response rating (wheat; [5]): 0
- Wheat plant response rating (wheat; [6]): 1
- Plant response rating, Wheat (wheat; [7]): 6
- Plant response rating, Wild oats (wild oat; [2]): 0
- Wild oats plant response rating (wild oat; [3]): 2
- Plant response rating, Wild oats (wild oat; [4]): 4
- Wild oats plant response rating (wild oat; [5]): 3
- Wild oats plant response rating (wild oat; [6]): 8
- Plant response rating, Wild oats (wild oat; [7]): 9
- Nutsedge plant response rating (purple nutsedge; [1]): 0
- Plant response rating, Nutsedge (purple nutsedge; [2]): 0
- Nutsedge plant response rating (purple nutsedge; [3]): 0
- Plant response rating, Nutsedge (purple nutsedge; [4]): 5
- Nutsedge plant response rating (purple nutsedge; [6]): 3
- Plant response rating, Nutsedge (purple nutsedge; [7]): 4
- Plant response rating, Rice (0 to 10 scale, 0 is no effect, 10 is complete control) (rice; [8]): 0
- Rice plant response rating (0 to 10 scale, 0 is no effect, 10 is complete control) (rice; [9]): 0
- Rice plant response rating (rice; [10]): 0
- Rice plant response rating (rice; [11]): 0
- Plant response rating, S. Flatsedge (0 to 10 scale, 0 is no effect, 10 is complete control) (smallflower flatsedge; [8]): 0
- S. Flatsedge plant response rating (0 to 10 scale, 0 is no effect, 10 is complete control) (smallflower flatsedge; [9]): 0
- S. Flatsedge plant response rating (smallflower flatsedge; [10]): 0
- S. Flatsedge plant response rating (smallflower flatsedge; [11]): 0
- Plant response rating, Ducksalad (0 to 10 scale, 0 is no effect, 10 is complete control) (duck salad; [8]): 0
- Ducksalad plant response rating (0 to 10 scale, 0 is no effect, 10 is complete control) (duck salad; [9]): 0
- Ducksalad plant response rating (duck salad; [10]): 0
- Ducksalad plant response rating (duck salad; [11]): 0
- Plant response rating, Barnyardgrass (0 to 10 scale, 0 is no effect, 10 is complete control) (bamyardgrass; [8]): 0
- Barnyardgrass plant response rating (0 to 10 scale, 0 is no effect, 10 is complete control) (bamyardgrass; [9]): 0
- Barnyardgrass plant response rating (bamyardgrass; [10]): 0
- Barnyardgrass plant response rating (bamyardgrass; [11]): 0
